Here are results for 71 compounds from US8211935B2, “Heterocyclic derivatives for modulation of calcium channels” (Vertex Pharmaceuticals Incorporated, priority 2004, dated 2012).

Structures are written as SMILES. Like-named read-outs stand apart in the source and are kept apart here.

The target of the experiment is T1, CaV2.2 (Homo sapiens, UniProt Q00975).
T1 construct: expressed in transfected cells; host or cells: HEK293
Put plainly: VIPR optical membrane potential assay with electrical stimulation. The experiment is classed as cell-based. In short, it runs like this:
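HEK293 cells stably expressing CaV2.2, stained with CC2-DMPE (10 μM final) and oxonol voltage-sensitive dyes, compound added with BaCl2. Membrane potential response evoked by 3-5 s electrical stimulation. Read as background-subtracted 460/580 nm emission ratio, response R=Rf/Ri, normalized to mibefradil positive and no-drug negative controls.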

Where [1] appears, read: Table 3, biological assay data, read-out: IC50.

T1 sequence (Q00975 whole entry): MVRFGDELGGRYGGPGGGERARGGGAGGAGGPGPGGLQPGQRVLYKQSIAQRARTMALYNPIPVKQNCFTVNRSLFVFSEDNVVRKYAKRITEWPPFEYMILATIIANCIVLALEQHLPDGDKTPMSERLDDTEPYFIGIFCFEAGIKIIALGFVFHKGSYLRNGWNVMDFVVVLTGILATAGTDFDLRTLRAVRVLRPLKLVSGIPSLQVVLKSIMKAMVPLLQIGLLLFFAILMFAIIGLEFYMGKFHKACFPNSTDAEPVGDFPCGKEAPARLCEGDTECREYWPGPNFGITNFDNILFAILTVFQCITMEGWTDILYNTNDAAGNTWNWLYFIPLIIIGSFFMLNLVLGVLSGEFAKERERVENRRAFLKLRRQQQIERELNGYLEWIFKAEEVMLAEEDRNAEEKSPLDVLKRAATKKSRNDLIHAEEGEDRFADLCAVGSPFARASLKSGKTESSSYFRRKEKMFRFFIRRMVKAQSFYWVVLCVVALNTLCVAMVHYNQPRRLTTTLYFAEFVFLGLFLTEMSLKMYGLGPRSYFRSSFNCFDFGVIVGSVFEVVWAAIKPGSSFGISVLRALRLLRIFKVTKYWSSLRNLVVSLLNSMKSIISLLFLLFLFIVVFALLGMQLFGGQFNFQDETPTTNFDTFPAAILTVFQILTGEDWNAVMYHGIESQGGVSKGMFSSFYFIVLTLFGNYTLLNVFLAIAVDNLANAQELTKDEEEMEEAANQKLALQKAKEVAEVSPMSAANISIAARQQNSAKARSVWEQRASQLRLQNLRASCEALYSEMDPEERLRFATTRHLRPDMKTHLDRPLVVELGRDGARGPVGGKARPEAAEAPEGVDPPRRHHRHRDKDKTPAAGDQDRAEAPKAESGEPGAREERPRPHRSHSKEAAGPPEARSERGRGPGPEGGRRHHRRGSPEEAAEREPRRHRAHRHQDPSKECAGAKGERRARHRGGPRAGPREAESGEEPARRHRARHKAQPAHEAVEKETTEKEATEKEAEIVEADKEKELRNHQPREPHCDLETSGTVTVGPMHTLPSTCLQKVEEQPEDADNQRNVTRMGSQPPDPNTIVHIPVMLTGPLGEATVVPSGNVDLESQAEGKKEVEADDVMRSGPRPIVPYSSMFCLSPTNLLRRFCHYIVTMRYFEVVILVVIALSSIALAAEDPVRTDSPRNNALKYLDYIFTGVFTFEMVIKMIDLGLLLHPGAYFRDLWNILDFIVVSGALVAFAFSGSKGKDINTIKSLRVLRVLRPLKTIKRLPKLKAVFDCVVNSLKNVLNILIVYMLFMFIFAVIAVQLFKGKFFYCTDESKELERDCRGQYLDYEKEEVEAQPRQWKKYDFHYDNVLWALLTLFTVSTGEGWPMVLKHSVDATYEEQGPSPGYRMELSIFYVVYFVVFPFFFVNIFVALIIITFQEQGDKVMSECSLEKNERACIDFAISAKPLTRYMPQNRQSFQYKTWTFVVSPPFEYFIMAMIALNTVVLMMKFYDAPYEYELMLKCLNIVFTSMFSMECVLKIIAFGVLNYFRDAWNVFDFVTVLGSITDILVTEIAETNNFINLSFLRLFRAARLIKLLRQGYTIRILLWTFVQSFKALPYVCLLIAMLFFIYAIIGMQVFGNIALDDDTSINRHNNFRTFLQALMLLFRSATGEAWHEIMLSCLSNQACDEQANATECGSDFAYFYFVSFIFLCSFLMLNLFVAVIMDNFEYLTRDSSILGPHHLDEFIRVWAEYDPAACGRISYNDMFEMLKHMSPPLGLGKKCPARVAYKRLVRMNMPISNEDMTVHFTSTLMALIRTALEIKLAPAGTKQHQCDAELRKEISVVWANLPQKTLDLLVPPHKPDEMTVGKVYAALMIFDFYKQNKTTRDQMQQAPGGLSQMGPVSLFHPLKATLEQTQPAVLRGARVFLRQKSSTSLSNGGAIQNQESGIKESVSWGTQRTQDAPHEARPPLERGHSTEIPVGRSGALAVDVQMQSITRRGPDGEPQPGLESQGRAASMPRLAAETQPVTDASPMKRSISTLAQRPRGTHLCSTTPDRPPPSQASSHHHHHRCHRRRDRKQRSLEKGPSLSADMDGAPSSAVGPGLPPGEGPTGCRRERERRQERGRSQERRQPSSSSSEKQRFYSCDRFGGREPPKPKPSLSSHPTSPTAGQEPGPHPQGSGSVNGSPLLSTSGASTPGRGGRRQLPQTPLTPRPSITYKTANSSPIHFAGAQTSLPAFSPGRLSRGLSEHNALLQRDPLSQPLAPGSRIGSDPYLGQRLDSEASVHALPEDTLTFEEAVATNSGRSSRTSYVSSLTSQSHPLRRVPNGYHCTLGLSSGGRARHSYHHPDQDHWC
T1 sequence (P54284 whole entry partner): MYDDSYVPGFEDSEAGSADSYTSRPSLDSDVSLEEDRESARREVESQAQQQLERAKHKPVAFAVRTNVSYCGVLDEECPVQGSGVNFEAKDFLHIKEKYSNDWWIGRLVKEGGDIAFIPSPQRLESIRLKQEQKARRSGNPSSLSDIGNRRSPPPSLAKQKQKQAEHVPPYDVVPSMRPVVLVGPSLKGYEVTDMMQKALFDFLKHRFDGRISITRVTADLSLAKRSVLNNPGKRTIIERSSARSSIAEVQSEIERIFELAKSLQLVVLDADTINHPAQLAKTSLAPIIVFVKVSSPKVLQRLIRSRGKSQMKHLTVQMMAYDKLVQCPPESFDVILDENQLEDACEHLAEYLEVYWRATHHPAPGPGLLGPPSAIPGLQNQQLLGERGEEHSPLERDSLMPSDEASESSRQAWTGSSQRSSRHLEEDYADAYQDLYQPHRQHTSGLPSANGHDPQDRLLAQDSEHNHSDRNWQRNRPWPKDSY
T1 sequence (P54289 25-946 partner limits assumed): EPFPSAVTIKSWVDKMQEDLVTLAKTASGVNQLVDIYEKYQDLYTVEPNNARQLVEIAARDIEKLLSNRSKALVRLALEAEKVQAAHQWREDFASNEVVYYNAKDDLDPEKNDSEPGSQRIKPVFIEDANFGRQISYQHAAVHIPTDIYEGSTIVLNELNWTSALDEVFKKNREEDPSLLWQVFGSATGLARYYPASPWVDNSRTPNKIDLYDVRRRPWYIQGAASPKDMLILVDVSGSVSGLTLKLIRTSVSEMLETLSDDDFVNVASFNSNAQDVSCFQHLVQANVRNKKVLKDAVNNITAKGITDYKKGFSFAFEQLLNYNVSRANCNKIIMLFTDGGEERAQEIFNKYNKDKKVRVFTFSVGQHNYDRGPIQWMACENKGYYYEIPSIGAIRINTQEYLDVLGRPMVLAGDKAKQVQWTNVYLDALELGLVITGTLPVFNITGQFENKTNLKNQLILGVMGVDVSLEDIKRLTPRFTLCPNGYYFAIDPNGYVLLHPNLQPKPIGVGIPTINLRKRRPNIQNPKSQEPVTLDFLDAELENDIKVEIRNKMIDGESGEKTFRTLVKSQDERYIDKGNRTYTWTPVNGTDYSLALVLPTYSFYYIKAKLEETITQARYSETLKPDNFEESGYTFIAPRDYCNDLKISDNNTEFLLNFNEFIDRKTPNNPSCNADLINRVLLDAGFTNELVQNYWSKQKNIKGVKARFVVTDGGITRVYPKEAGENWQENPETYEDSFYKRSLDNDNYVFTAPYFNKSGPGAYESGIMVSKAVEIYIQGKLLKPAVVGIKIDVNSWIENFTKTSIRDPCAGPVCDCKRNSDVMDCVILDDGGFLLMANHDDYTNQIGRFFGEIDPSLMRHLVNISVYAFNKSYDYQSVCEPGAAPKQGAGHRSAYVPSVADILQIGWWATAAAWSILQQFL
T1 sequence (P54289 947-1103 partner limits assumed): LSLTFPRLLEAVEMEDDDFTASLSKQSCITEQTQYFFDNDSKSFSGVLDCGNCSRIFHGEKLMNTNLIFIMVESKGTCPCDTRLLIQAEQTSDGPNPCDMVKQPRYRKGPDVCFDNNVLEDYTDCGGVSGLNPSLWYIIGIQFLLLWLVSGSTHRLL

A word on the IC50: it is the point on the concentration scale where inhibition reaches its midpoint. Regarding `O=C(NCC1CCOCC1)c1cc2cc(S(=O)(=O)N3CCCCCC3)ccc2o1` [compound 363], the IC50 under setting [1] lay within 5 to 20 µM.

As for `CC1CCN(C(=O)c2cc3cc(S(=O)(=O)N4CCCCCC4)ccc3[nH]2)CC1` [compound 364], the IC50 under setting [1] lay within 5 to 20 µM.

On to `CNC(=O)c1oc2ccc(S(=O)(=O)N3CCCC(C)C3)cc2c1C` (centres unmarked) [compound 365], for which, under setting [1], the IC50 is 5 to 20 µM.

In the case of `CC1CC(C)CN(S(=O)(=O)c2ccc3[nH]c(C(=O)NC4CCCC4)cc3c2)C1` (centres unmarked) [compound 366], the IC50 under setting [1] was < 5 µM.

As for `CCN(CC)S(=O)(=O)c1ccc2oc(C(=O)N3CCCCC3)c(C)c2c1` [compound 367], the IC50 under setting [1] is < 20 µM.

Turning to `CC1CCN(S(=O)(=O)c2ccc3[nH]c(C(=O)N4CCCCC4)cc3c2)CC1` [compound 368], under setting [1], the IC50 is < 5 µM.

On to `CCCCN(C)C(=O)c1oc2ccc(S(=O)(=O)N3CCCC(C)C3)cc2c1C` (centres unmarked) [compound 369], for which the IC50 under setting [1] was < 5 µM.

Turning to `CCN(CC)S(=O)(=O)c1ccc2oc(C(=O)NC3CCCCC3)c(C)c2c1` [compound 370], the IC50 under setting [1] was 5 to 20 µM.

For `Cc1c(C(=O)NC2CCCCC2)oc2ccc(S(=O)(=O)N3CCC4(CC3)OCCO4)cc12` [compound 371], the IC50 under setting [1] was 5 to 20 µM.

With `Cc1c(C(=O)N2CCOCC2)oc2ccc(S(=O)(=O)N3CCCCC3)cc12` [compound 372], under setting [1], the IC50 was < 20 µM.

In the case of `Cc1c(C(=O)N(C)Cc2ccccc2)[nH]c2ccc(S(=O)(=O)N3CC(C)CC(C)C3)cc12` (centres unmarked) [compound 373], the IC50 under setting [1] is < 5 µM.

For `CCN(CC)C(=O)c1cc2cc(S(=O)(=O)N3CC(C)CC(C)C3)ccc2n1CCCN1CCN(C)CC1` (centres unmarked) [compound 374], under setting [1], the 50% inhibitory concentration (IC50) was < 5 µM.

For `COc1ccccc1CNC(=O)c1oc2ccc(S(=O)(=O)N3CCCC3)cc2c1C` [compound 375], under setting [1], the IC50 lay in the range of 5 to 20 µM.

Regarding `Cc1c(C(=O)N2CCC(C)CC2)oc2ccc(S(=O)(=O)N3CCCC(C)C3)cc12` (centres unmarked) [compound 376], the IC50 under setting [1] is < 5 µM.

As to `CCCCN(C)C(=O)c1cc2cc(S(=O)(=O)N3CC(C)CC(C)C3)ccc2[nH]1` (centres unmarked) [compound 377], under setting [1], the IC50 was < 5 µM.

Turning to `Cc1c(C(=O)N2CCCC(C)C2)oc2ccc(S(=O)(=O)N3CC(C)CC(C)C3)cc12` (centres unmarked) [compound 378], the IC50 under setting [1] is < 5 µM.

On to `Cc1c(C(=O)N2CCCCC2C)[nH]c2ccc(S(=O)(=O)N3CCCCCC3)cc12` (centres unmarked) [compound 379], for which, under setting [1], the IC50 lay within 5 to 20 µM.

Take `CC1CCN(S(=O)(=O)c2ccc3cc(C(=O)N(C)C)[nH]c3c2)CC1` [compound 380]: under setting [1], the IC50 is < 20 µM.

As for `Cc1c(C(=O)NCCc2ccccc2)[nH]c2ccc(S(=O)(=O)N3CCC(C)CC3)cc12` [compound 381], under setting [1], the IC50 was < 5 µM.

Turning to `O=C(NCc1ccccc1)c1cc2cc(S(=O)(=O)N3CCCCCC3)ccc2[nH]1` [compound 382], under setting [1], the IC50 is < 5 µM.

As for `Cc1c(C(=O)NCC2CCOCC2)oc2ccc(S(=O)(=O)N3CCCC(C)C3)cc12` (centres unmarked) [compound 383], the IC50 under setting [1] fell in the range of 5 to 20 µM.

Turning to `CCNC(=O)c1cc2cc(S(=O)(=O)N3CC(C)CC(C)C3)ccc2[nH]1` (centres unmarked) [compound 384], the IC50 under setting [1] is < 5 µM.

On to `Cc1c(C(=O)N2CCN(C)CC2)oc2ccc(S(=O)(=O)N3CCC(C)CC3)cc12` [compound 385], for which the concentration for half-maximal inhibition (IC50) under setting [1] lay in the range of 5 to 20 µM.

In the case of `O=C(NCC1CCCO1)c1cc2cc(S(=O)(=O)N3CCCCCC3)ccc2[nH]1` (centres unmarked) [compound 386], under setting [1], the IC50 is < 5 µM.

As to `CCCS(=O)(=O)n1c(C(=O)N2CCCCC2)cc2cc(S(=O)(=O)N3CC(C)CC(C)C3)ccc21` (centres unmarked) [compound 387], the IC50 under setting [1] was < 5 µM.

As to `CCN(CC)S(=O)(=O)c1ccc2oc(C(=O)N3CCCC(C)C3)c(C)c2c1` (centres unmarked) [compound 388], the IC50 under setting [1] is 5 to 20 µM.

For the compound `CC1CC(C)CN(S(=O)(=O)c2ccc3[nH]c(C(=O)N4CCCCC4)cc3c2)C1` (centres unmarked) [compound 389], under setting [1], the IC50 was < 5 µM.

Turning to `Cc1c(C(=O)NC2CCCC2)[nH]c2ccc(S(=O)(=O)N3CC(C)CC(C)C3)cc12` (centres unmarked) [compound 390], the IC50 under setting [1] was < 5 µM.

With `CC1CC(C)CN(S(=O)(=O)c2ccc3c(c2)cc(C(=O)N2CCCCC2)n3C)C1` (centres unmarked) [compound 391], the IC50 under setting [1] is < 5 µM.

Regarding `CC1CCCCN1C(=O)c1cc2cc(S(=O)(=O)N3CCCCCC3)ccc2o1` (centres unmarked) [compound 392], the IC50 under setting [1] lay in the range of 5 to 20 µM.

For the compound `Cc1c(C(=O)NCCc2ccccc2)oc2ccc(S(=O)(=O)N3CC(C)CC(C)C3)cc12` (centres unmarked) [compound 393], under setting [1], the IC50 was < 5 µM.

For the compound `Cc1ccc(CNS(=O)(=O)c2ccc3oc(C(=O)NC4CC4)c(C)c3c2)cc1` [compound 394], the IC50 under setting [1] was < 20 µM.

Consider `Cc1c(C(=O)NC2CC2)oc2ccc(S(=O)(=O)N3CCC(C)CC3)cc12` [compound 395], for which, under setting [1], the IC50 fell in the range of 5 to 20 µM.

On to `Cc1c(C(=O)N(CCN(C)C)Cc2ccccc2)oc2ccc(S(=O)(=O)N3CCC(C)CC3)cc12` [compound 396], for which the IC50 under setting [1] was < 5 µM.

As for `Cc1c(C(=O)NCc2ccccc2)oc2ccc(S(=O)(=O)N3CCCC(C)C3)cc12` (centres unmarked) [compound 397], under setting [1], the IC50 lay in the range of 5 to 20 µM.

Take `O=C(NCc1ccccc1)c1cc2cc(S(=O)(=O)N3CCCCCC3)ccc2n1S(=O)(=O)c1ccccc1` [compound 398]: the IC50 under setting [1] is < 5 µM.

Take `CCN(CC)S(=O)(=O)c1ccc2oc(C(=O)NC(C)C)c(C)c2c1` [compound 399]: under setting [1], the IC50 was < 20 µM.

In the case of `CC(C)NC(=O)c1cc2cc(S(=O)(=O)N3CCCCCC3)ccc2[nH]1` [compound 400], the IC50 under setting [1] is < 20 µM.

As for `Cc1c(C(=O)NCCCc2ccccc2)oc2ccc(S(=O)(=O)N3CCCC(C)C3)cc12` (centres unmarked) [compound 401], the half-inhibitory concentration (IC50) under setting [1] is < 5 µM.

Regarding `Cc1c(C(=O)N2CCCC2)oc2ccc(S(=O)(=O)N3CCCCCC3)cc12` [compound 402], the IC50 under setting [1] was < 20 µM.

As to `CCOC(=O)N1CCN(C(=O)c2oc3ccc(S(=O)(=O)N4CCCC(C)C4)cc3c2C)CC1` (centres unmarked) [compound 403], under setting [1], the IC50 is < 5 µM.

`Cc1c(C(=O)N2CCN(C)CC2)oc2ccc(S(=O)(=O)N3CCCC(C)C3)cc12` (centres unmarked) [compound 404]: the IC50 under setting [1] lay in the range of 5 to 20 µM.

Consider `CC1CC(C)CN(S(=O)(=O)c2ccc3[nH]c(C(=O)NCCC4CCOCC4)cc3c2)C1` (centres unmarked) [compound 405], for which, under setting [1], the IC50 was < 5 µM.

As to `CC1CCCN(C(=O)c2cc3cc(S(=O)(=O)N4CC(C)CC(C)C4)ccc3o2)C1` (centres unmarked) [compound 406], the IC50 under setting [1] was < 5 µM.

For the compound `CC1CCN(S(=O)(=O)c2ccc3[nH]c(C(=O)NCC4CCCO4)cc3c2)CC1` (centres unmarked) [compound 407], the concentration for half-maximal inhibition (IC50) under setting [1] is < 5 µM.

With `CC1CC(C)CN(S(=O)(=O)c2ccc3oc(C(=O)NCC4CCCO4)cc3c2)C1` (centres unmarked) [compound 408], the IC50 under setting [1] is < 5 µM.

With `Cc1c(C(=O)N2CCCCCC2)oc2ccc(S(=O)(=O)N3CCCC(C)C3)cc12` (centres unmarked) [compound 409], the IC50 under setting [1] was < 5 µM.

For the compound `CCOC(=O)N1CCN(C(=O)c2cc3cc(S(=O)(=O)N4CCCCCC4)ccc3o2)CC1` [compound 410], the IC50 under setting [1] is 5 to 20 µM.

Consider `Cc1c(C(=O)NC(C)C)oc2ccc(S(=O)(=O)N3CCC(C)CC3)cc12` [compound 411], for which the IC50 under setting [1] is < 5 µM.

For `CC1CCN(S(=O)(=O)c2ccc3[nH]c(C(=O)NC4CCCC4)cc3c2)CC1` [compound 412], under setting [1], the IC50 is < 5 µM.

`Cc1c(C(=O)N2CCCC(C)C2)oc2ccc(S(=O)(=O)N3CCCC(C)C3)cc12` (centres unmarked) [compound 413]: the IC50 under setting [1] is < 5 µM.

Turning to `Cc1c(C(=O)N2CCCC2)oc2ccc(S(=O)(=O)N3CC(C)CC(C)C3)cc12` (centres unmarked) [compound 414], under setting [1], the IC50 is < 5 µM.

Consider `CCOC(=O)N1CCN(C(=O)c2cc3cc(S(=O)(=O)N4CC(C)CC(C)C4)ccc3[nH]2)CC1` (centres unmarked) [compound 415], for which, under setting [1], the IC50 is < 5 µM.

Turning to `CN(Cc1ccccc1)C(=O)c1cc2cc(S(=O)(=O)N3CCCCCC3)ccc2[nH]1` [compound 416], the IC50 under setting [1] is < 5 µM.

On to `CC1CCN(S(=O)(=O)c2ccc3oc(C(=O)N4CCCC(C)C4)cc3c2)CC1` (centres unmarked) [compound 417], for which, under setting [1], the IC50 was in the range of 5 to 20 µM.

Consider `O=C(NCC1CCOCC1)c1cc2cc(S(=O)(=O)N3CCCCCC3)ccc2[nH]1` [compound 418], for which, under setting [1], the IC50 was < 5 µM.

Consider `CC1CC(C)CN(S(=O)(=O)c2ccc3c(c2)cc(C(=O)N2CCN(C)CC2)n3S(=O)(=O)c2ccccc2)C1` (centres unmarked) [compound 419], for which the half-maximal inhibitory concentration (IC50) under setting [1] fell in the range of 5 to 20 µM.

Take `CCCCN(C)C(=O)c1[nH]c2ccc(S(=O)(=O)N3CC(C)CC(C)C3)cc2c1C` (centres unmarked) [compound 420]: under setting [1], the IC50 is < 5 µM.

With `O=C(NC1CC1)c1cc2cc(S(=O)(=O)N3CCCCCC3)ccc2n1S(=O)(=O)c1ccccc1` [compound 421], the IC50 under setting [1] was < 5 µM.

As for `CCCCN(C)C(=O)c1cc2cc(S(=O)(=O)N3CCCCCC3)ccc2[nH]1` [compound 422], under setting [1], the IC50 was < 5 µM.

Turning to `CCN(CC)C(=O)c1oc2ccc(S(=O)(=O)N3CC(C)CC(C)C3)cc2c1C` (centres unmarked) [compound 423], under setting [1], the IC50 is < 5 µM.

On to `Cc1c(C(=O)NC2CCCCC2)[nH]c2ccc(S(=O)(=O)N3CCC(C)CC3)cc12` [compound 424], for which, under setting [1], the IC50 was 5 to 20 µM.

`CC1CC(C)CN(C(=O)c2cc3cc(S(=O)(=O)N4CC(C)CC(C)C4)ccc3[nH]2)C1` (centres unmarked) [compound 425]: under setting [1], the IC50 was < 5 µM.

In the case of `Cc1c(C(=O)NC2CC2)oc2ccc(S(=O)(=O)N3CCCC(F)(F)C3)cc12` [compound 426], the IC50 under setting [1] lay within 5 to 20 µM.

For the compound `O=C(NC1CCCCC1)c1cc2cc(S(=O)(=O)N3CCCCCC3)ccc2o1` [compound 427], the IC50 under setting [1] is < 5 µM.

With `O=C(NC1CC1)c1cc2cc(NS(=O)(=O)c3ccccc3)ccc2[nH]1` [compound 428], the IC50 under setting [1] was < 20 µM.

On to `O=C(NCC1CCCO1)c1cc2cc(S(=O)(=O)N3CCCCCC3)ccc2o1` (centres unmarked) [compound 429], for which, under setting [1], the IC50 is 5 to 20 µM.

Consider `CC1CC(C)CN(S(=O)(=O)c2ccc3oc(C(=O)N(C)Cc4ccccc4)cc3c2)C1` (centres unmarked) [compound 430], for which the IC50 under setting [1] was < 5 µM.

In the case of `Cc1c(C(N)=O)oc2ccc(S(=O)(=O)N3CCC(C)CC3)cc12` [compound 431], the IC50 under setting [1] lay in the range of 5 to 20 µM.

As to `Cc1c(C(=O)N2CCC3(CC2)OCCO3)oc2ccc(S(=O)(=O)N3CCOCC3)cc12` [compound 432], the IC50 was < 20 µM.

For the compound `CC1CCN(S(=O)(=O)c2ccc3oc(C(=O)N(C)Cc4ccccc4)cc3c2)CC1` [compound 433], the IC50 under setting [1] is < 5 µM.
